# Assay results as given in PubChem BioAssay AID248 (DTP/NCI, 2004).
# Where “and” joins values, the source holds several entries; their conditions need not be identical. Equal values may be shown once. Inconclusive results and toxic doses are left out.
# Tested on: L1210 leukemia ip in BDF1 mice, survival T/C
# Experiment: NCI In Vivo Anticancer Drug Screen. Data for tumor model L1210 Leukemia (intraperitoneal) in B6D2F1 (BDF1) mice
# Conditions: endpoint: mean survival time, higher = longer survival
# Outline: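 Tumor cells were implanted, animals were treated, and survival was followed. The result divides the treated measurement by the vehicle-control measurement.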
# [1] = dose: 100.0 mg/kg/injection, schedule: Q01DX009 (ip), vehicle: carboxymethylcellulose (CMC)
# [2] = dose: 100.0 mg/kg/injection, schedule: Q04DX002 (ip), vehicle: carboxymethylcellulose (CMC)
# [3] = dose: 200.0 mg/kg/injection, schedule: Q01DX009 (ip), vehicle: carboxymethylcellulose (CMC)
# [4] = dose: 200.0 mg/kg/injection, schedule: Q04DX002 (ip), vehicle: carboxymethylcellulose (CMC)
# [5] = dose: 100.0 mg/kg/injection, schedule: Q01DX001 (ip), vehicle: carboxymethylcellulose (CMC)
# [6] = dose: 200.0 mg/kg/injection, schedule: Q01DX001 (ip), vehicle: carboxymethylcellulose (CMC)
# [7] = dose: 100.0 mg/kg/injection, schedule: Q01DX009 (ip), vehicle: saline with Tween-80
# [8] = dose: 100.0 mg/kg/injection, schedule: Q04DX003 (ip), vehicle: saline with Tween-80
# [9] = dose: 200.0 mg/kg/injection, schedule: Q01DX009 (ip), vehicle: saline with Tween-80
# [10] = dose: 200.0 mg/kg/injection, schedule: Q04DX003 (ip), vehicle: saline with Tween-80
# [11] = dose: 400.0 mg/kg/injection, schedule: Q01DX009 (ip), vehicle: saline with Tween-80
# [12] = dose: 400.0 mg/kg/injection, schedule: Q04DX003 (ip), vehicle: saline with Tween-80
# [13] = dose: 50.0 mg/kg/injection, schedule: Q01DX009 (ip), vehicle: saline with Tween-80
# [14] = dose: 400.0 mg/kg/injection, schedule: Q01DX001 (ip), vehicle: carboxymethylcellulose (CMC)
# [15] = dose: 400.0 mg/kg/injection, schedule: Q01DX001 (ip), vehicle: Klucel (hydroxypropylcellulose) (HPC)
compound,measurement,setting,value
Cc1ccc2[nH]c(=S)n(-c3ccc(C)c(Cl)c3)c(=O)c2c1,T/C,[1],95 % of control
same,T/C,[2],99 % of control and 89 % of control
same,T/C,[3],93 % of control and 89 % of control
same,T/C,[4],96 % of control and 99 % of control
same,T/C,"dose: 400.0 mg/kg/injection, schedule: Q01DX009 (ip), vehicle: carboxymethylcellulose (CMC)",92 % of control and 89 % of control
same,T/C,"dose: 400.0 mg/kg/injection, schedule: Q04DX002 (ip), vehicle: carboxymethylcellulose (CMC)",92 % of control
CCOC(=O)c1ccc(NCCC(=O)CBr)cc1,T/C,"dose: 5.0 mg/kg/injection, schedule: Q01DX001 (ip), vehicle: carboxymethylcellulose (CMC)",97 % of control
same,T/C,"dose: 10.0 mg/kg/injection, schedule: Q01DX001 (ip), vehicle: carboxymethylcellulose (CMC)",97 % of control
same,T/C,"dose: 20.0 mg/kg/injection, schedule: Q01DX001 (ip), vehicle: carboxymethylcellulose (CMC)",92 % of control
same,T/C,"dose: 40.0 mg/kg/injection, schedule: Q01DX001 (ip), vehicle: carboxymethylcellulose (CMC)",100 % of control
CCOC(CN1CCOCC1)c1ccccc1 (stereo not given),T/C,"dose: 50.0 mg/kg/injection, schedule: Q01DX001 (ip), vehicle: carboxymethylcellulose (CMC)",100 % of control
same,T/C,"dose: 50.0 mg/kg/injection, schedule: Q01DX009 (ip), vehicle: carboxymethylcellulose (CMC)",93 % of control and 92 % of control
same,T/C,"dose: 50.0 mg/kg/injection, schedule: Q04DX003 (ip), vehicle: carboxymethylcellulose (CMC)",102 % of control
same,T/C,[5],99 % of control
same,T/C,[1],109 % of control and 91 % of control
same,T/C,[2],103 % of control and 105 % of control
same,T/C,"dose: 100.0 mg/kg/injection, schedule: Q04DX003 (ip), vehicle: carboxymethylcellulose (CMC)",107 % of control
same,T/C,[6],100 % of control
same,T/C,[3],106 % of control and 88 % of control
same,T/C,[4],106 % of control and 113 % of control
same,T/C,"dose: 200.0 mg/kg/injection, schedule: Q04DX003 (ip), vehicle: carboxymethylcellulose (CMC)",104 % of control
CC1(C2CCN(Cc3ccccc3)CC2)OCCO1,T/C,"dose: 37.5 mg/kg/injection, schedule: Q04DX003 (ip), vehicle: saline",100 % of control
same,T/C,"dose: 75.0 mg/kg/injection, schedule: Q04DX003 (ip), vehicle: saline",100 % of control
same,T/C,"dose: 150.0 mg/kg/injection, schedule: Q04DX003 (ip), vehicle: saline",101 % of control
OC(c1ccc(Br)cc1)(c1cccs1)C1CC1 (stereo not given),T/C,[7],98 % of control
same,T/C,[8],103 % of control
same,T/C,[9],98 % of control
same,T/C,[10],100 % of control
same,T/C,[11],98 % of control
same,T/C,[12],97 % of control
CN(C)C(=O)Sc1ccc([N+](=O)[O-])cc1Cl,T/C,"dose: 100.0 mg/kg/injection, schedule: Q04DX003 (ip), vehicle: Klucel (hydroxypropylcellulose) (HPC)",107 % of control
same,T/C,"dose: 200.0 mg/kg/injection, schedule: Q04DX003 (ip), vehicle: Klucel (hydroxypropylcellulose) (HPC)",101 % of control
same,T/C,"dose: 400.0 mg/kg/injection, schedule: Q04DX003 (ip), vehicle: Klucel (hydroxypropylcellulose) (HPC)",101 % of control
O=C(N/N=C/c1ccccn1)c1ccc(Cl)cc1,T/C,[13],104 % of control
same,T/C,[7],86 % of control
same,T/C,[9],107 % of control
O=C(N/N=C/C=C/c1ccccc1)c1ccccc1O,T/C,"dose: 100.0 mg/kg/injection, schedule: Q01DX009 (ip), vehicle: Klucel (hydroxypropylcellulose) (HPC)",92 % of control
same,T/C,"dose: 200.0 mg/kg/injection, schedule: Q01DX009 (ip), vehicle: Klucel (hydroxypropylcellulose) (HPC)",89 % of control
same,T/C,"dose: 400.0 mg/kg/injection, schedule: Q01DX009 (ip), vehicle: Klucel (hydroxypropylcellulose) (HPC)",95 % of control
Cc1nc2cc(N=Cc3ccc(N(CCCl)CCCl)cc3Cl)ccc2n1C,T/C,"dose: 100.0 mg/kg/injection, schedule: Q04DX002 (ip), vehicle: Klucel (hydroxypropylcellulose) (HPC)",104 % of control
same,T/C,"dose: 200.0 mg/kg/injection, schedule: Q04DX002 (ip), vehicle: Klucel (hydroxypropylcellulose) (HPC)",104 % of control
same,T/C,"dose: 400.0 mg/kg/injection, schedule: Q04DX002 (ip), vehicle: Klucel (hydroxypropylcellulose) (HPC)",104 % of control
COc1ccc(/C=N/N2CCN(/N=C/c3ccc(OC)cc3)CC2)cc1,T/C,[5],88 % of control
same,T/C,[6],88 % of control
same,T/C,[14],93 % of control
CC(C)(C)C(Br)C(Br)Br (stereo not given) (tested in a mixture with another compound),T/C,[13],101 % of control
same,T/C,[7],97 % of control
same,T/C,[9],89 % of control
NC(=O)c1nc2n(c1N)CCC2,T/C,[7],108 % of control
same,T/C,[8],97 % of control
same,T/C,[9],110 % of control
same,T/C,[10],100 % of control
same,T/C,[11],105 % of control
same,T/C,[12],94 % of control
S=C(S)NCCc1ccccn1,T/C,[8],95 % of control
same,T/C,[10],87 % of control
same,T/C,[12],98 % of control
O=C(Nc1nccs1)C(Cl)Cl,T/C,[5],103 % of control
same,T/C,"dose: 177.0 mg/kg/injection, schedule: Q01DX001 (ip), vehicle: Klucel (hydroxypropylcellulose) (HPC)",105 % of control
same,T/C,[6],118 % of control
same,T/C,"dose: 266.0 mg/kg/injection, schedule: Q01DX001 (ip), vehicle: Klucel (hydroxypropylcellulose) (HPC)",107 % of control
same,T/C,[15],105 % of control
same,T/C,[14],249 % of control
same,T/C,"dose: 600.0 mg/kg/injection, schedule: Q01DX001 (ip), vehicle: Klucel (hydroxypropylcellulose) (HPC)",105 % of control
CC(=O)c1cccc(OC(=O)Oc2cccc(C(C)=O)c2)c1,T/C,[5],95 % of control
same,T/C,[6],90 % of control
same,T/C,[14],95 % of control
OCCN1CCN(CC/C=C2\c3ccccc3COc3ccc(Cl)cc32)CC1,T/C,"dose: 0.78 mg/kg/injection, schedule: Q03HX024 (ip), vehicle: saline",97 % of control
same,T/C,"dose: 1.56 mg/kg/injection, schedule: Q03HX024 (ip), vehicle: saline",94 % of control
same,T/C,"dose: 2.0 mg/kg/injection, schedule: Q01DX009 (ip), vehicle: saline",88 % of control
same,T/C,"dose: 3.12 mg/kg/injection, schedule: Q01DX009 (ip), vehicle: saline",114 % of control and 123 % of control
same,T/C,"dose: 3.12 mg/kg/injection, schedule: Q03HX024 (ip), vehicle: saline",96 % of control
same,T/C,"dose: 3.12 mg/kg/injection, schedule: Q04DX003 (ip), vehicle: saline",97 % of control
same,T/C,"dose: 4.0 mg/kg/injection, schedule: Q01DX009 (ip), vehicle: saline",98 % of control
same,T/C,"dose: 6.25 mg/kg/injection, schedule: Q01DX009 (ip), vehicle: saline",107 % of control and 122 % of control
same,T/C,"dose: 6.25 mg/kg/injection, schedule: Q04DX003 (ip), vehicle: saline",105 % of control and 120 % of control
same,T/C,"dose: 8.0 mg/kg/injection, schedule: Q01DX009 (ip), vehicle: saline",96 % of control
same,T/C,"dose: 12.5 mg/kg/injection, schedule: Q01DX001 (ip), vehicle: saline",106 % of control
same,T/C,"dose: 12.5 mg/kg/injection, schedule: Q01DX009 (ip), vehicle: saline",114 % of control
same,T/C,"dose: 12.5 mg/kg/injection, schedule: Q04DX003 (ip), vehicle: saline",103 % of control and 117 % of control
same,T/C,"dose: 16.0 mg/kg/injection, schedule: Q01DX009 (ip), vehicle: saline",100 % of control
same,T/C,"dose: 18.75 mg/kg/injection, schedule: Q01DX001 (ip), vehicle: saline",100 % of control
same,T/C,"dose: 25.0 mg/kg/injection, schedule: Q01DX001 (ip), vehicle: saline",120 % of control
same,T/C,"dose: 25.0 mg/kg/injection, schedule: Q04DX003 (ip), vehicle: saline",95 % of control and 119 % of control
same,T/C,"dose: 37.5 mg/kg/injection, schedule: Q01DX001 (ip), vehicle: saline",120 % of control
same,T/C,"dose: 50.0 mg/kg/injection, schedule: Q01DX001 (ip), vehicle: saline",101 % of control
same,T/C,"dose: 50.0 mg/kg/injection, schedule: Q04DX003 (ip), vehicle: saline",101 % of control
same,T/C,"dose: 75.0 mg/kg/injection, schedule: Q01DX001 (ip), vehicle: saline",88 % of control
same,T/C,"dose: 100.0 mg/kg/injection, schedule: Q01DX001 (ip), vehicle: saline",118 % of control
CCOC(=O)C[n+]1ccccc1C,T/C,"dose: 50.0 mg/kg/injection, schedule: Q04DX002 (ip), vehicle: saline",90 % of control
same,T/C,"dose: 100.0 mg/kg/injection, schedule: Q04DX002 (ip), vehicle: saline",97 % of control
same,T/C,"dose: 200.0 mg/kg/injection, schedule: Q04DX002 (ip), vehicle: saline",93 % of control
CC1(CCI)NC(=O)NC1=O (stereo not given),T/C,"dose: 100.0 mg/kg/injection, schedule: Q01DX001 (ip), vehicle: Klucel (hydroxypropylcellulose) (HPC)",98 % of control
same,T/C,"dose: 200.0 mg/kg/injection, schedule: Q01DX001 (ip), vehicle: Klucel (hydroxypropylcellulose) (HPC)",104 % of control
same,T/C,[15],111 % of control
